# Test results: patent US10959961B2, “Methods of administering anionic cannabinoid molecules dissolved in water” (priority 2018, dated 2021)
# Values joined by “and” are separate entries in the source; they are usually repeats but may differ in a detail not shown here. Identical values can stand only once.
# How the values were obtained:
# [1] = Dissolving salts of the phenolate in water (Examples 14 and 17); assay type: physicochemical; settings: salt from 1.4 grams cannabidiol, dried under vacuum; 90 milliliters
# Experimental: 1.4 grams of pure cannabidiol was dissolved in 10 milliliters of 0.5 molar potassium hydroxide in ethanol to convert the cannabidiol into 2-[(1R,6R)-6-isopropenyl-3-methylcyclohex-2-en-1-yl]-3-hydroxy-5-pentylphenolate. A potassium salt of 2-[(1R,6R)-6-isopropenyl-3-methylcyclohex-2-en-1-yl]-3-hydroxy-5-pentylphenolate was formed by drying the ethanol solution under vacuum overnight. 90 milliliters of 100 millimolar aqueous sodium carbonate was added to the potassium salt of 2-[(1R,6R)-6-isopropenyl-3-methylcyclohex-2-en-1-yl]-3-hydroxy-5-pentylphenolate.
# This example describes a successful attempt to produce a salt of 2-[(1R,6R)-6-isopropenyl-3-methylcyclohex-2-en-1-yl]-3-hydroxy-5-pentylphenolate that readily dissolves in water. A first aliquot from Example 16 was lyophilized to produce salts including a potassium 2-[(1R,6R)-6-isopropenyl-3-methylcyclohex-2-en-1-yl]-3-hydroxy-5-pentylphenolate salt and a sodium 2-[(1R,6R)-6-isopropenyl-3-methylcyclohex-2-en-1-yl]-3-hydroxy-5-pentylphenolate salt. […] The water was centrifuged to remove undissolved salt and to produce an aqueous solution of 2-[(1R,6R)-6-isopropenyl-3-methylcyclohex-2-en-1-yl]-3-hydroxy-5-pentylphenolate concentrate for inclusion in beverages.
# [2] = Color of phenolate in carbonate/bicarbonate buffer at variable pH (Example 19); assay type: physicochemical; settings: approximately 1 gram-per-liter
# Experimental: 1 gram of cannabidiol was dissolved in 6.6 milliliters of 0.5 molar potassium hydroxide in ethanol to produce 2-[(1R,6R)-6-isopropenyl-3-methylcyclohex-2-en-1-yl]-3-hydroxy-5-pentylphenolate. The solution was then diluted with 100 millimolar sodium carbonate in water to a final volume of 50 milliliters to produce a solution comprising 2-[(1R,6R)-6-isopropenyl-3-methylcyclohex-2-en-1-yl]-3-hydroxy-5-pentylphenolate at approximately 20-grams-per-liter. 0.5 milliliters of the 2-[(1R,6R)-6-isopropenyl-3-methylcyclohex-2-en-1-yl]-3-hydroxy-5-pentylphenolate solution was added to each of 25 test tubes containing 9.5 milliliters of 100 millimolar (0.1 M) carbonate/bicarbonate (CO3^2−/HCO3^−) buffer according to Table 1. Each test tube contained approximately 10 milligrams of 2-[(1R,6R)-6-isopropenyl-3-methylcyclohex-2-en-1-yl]-3-hydroxy-5-pentylphenolate at a concentration of approximately 1 gram-per-liter. pH's were confirmed by multiple different measurements.
# It was expected that 2-[(1R,6R)-6-isopropenyl-3-methylcyclohex-2-en-1-yl]-3-hydroxy-5-pentylphenolate would reform cannabidiol at pH's below a threshold pH as evidenced by an expected color change from purple (indicative of 2-[(1R,6R)-6-isopropenyl-3-methylcyclohex-2-en-1-yl]-3-hydroxy-5-pentylphenolate) to colorless (indicative of cannabidiol).
# [3] = Third-party HPLC cannabinoid profile of olive oil extract of the aqueous solution (Example 24); assay type: physicochemical
# Experimental: Pure cannabidiol was deprotonated and dissolved in water using a strategy similar to those described in Examples 16 and 19. Acetic acid was then added to 100 milliliters of the water, dropwise, until the purple color disappeared to reform cannabidiol. Reprotonated cannabidiol was extracted from the water using 4 milliliters of olive oil. Two 1 milliliter samples of the olive oil were sent to Botanacor Laboratories (Boulder, Colo.) for cannabinoid profile analysis using an Agilent Technologies (Santa Clara, Calif.) High Performance Liquid Chromatography instrument with a diode array detector. Botanacor Laboratories is ISO/IEC 17025 accredited for cannabinoid potency determination.
# [4] = Adjusting the pH of the phenolate emulsion to 9.1 with sodium bicarbonate (Examples 7 and 8); assay type: physicochemical; settings: emulsion adjusted to pH 9.1, color change and lipid phase separation
# Experimental: 1.65 grams of carbon-filtered industrial hemp extract comprising approximately 65% cannabidiol was dissolved in 10 milliliters of 420 millimolar potassium hydroxide in ethanol to convert the cannabidiol into 2-[(1R,6R)-6-isopropenyl-3-methylcyclohex-2-en-1-yl]-3-hydroxy-5-pentylphenolate.
# 1 gram of cannabidiol isolate was dissolved in 10 milliliters of 380 millimolar potassium hydroxide in ethanol to convert the cannabidiol into 2-[(1R,6R)-6-isopropenyl-3-methylcyclohex-2-en-1-yl]-3-hydroxy-5-pentylphenolate.
# [5] = Approximate pKa of cannabidiol by color at varying sodium bicarbonate (Example 20); assay type: physicochemical; settings: from color change at pH 8.0 and 8.3, read-out: pKa of cannabidiol in dilute aqueous solution
# Experimental: This example confirms that 2-[(1R,6R)-6-isopropenyl-3-methylcyclohex-2-en-1-yl]-3-hydroxy-5-pentylphenolate is viable for inclusion in beverages formulated for human consumption. 0.5 milliliters of the 20 gram-per-liter solution of 2-[(1R,6R)-6-isopropenyl-3-methylcyclohex-2-en-1-yl]-3-hydroxy-5-pentylphenolate described in Example 19 was diluted with 9.5 milliliters of distilled water comprising varying concentrations of sodium bicarbonate, and color was monitored as shown in Table 2. pH's were confirmed by multiple different measurements.
# A color change was visually apparent at a pH of 8.0, and a subtle color change was visually apparent at pH of 8.3.
# [6] = Removal of ethanol in a vacuum oven up to 157° C. (Example 15); assay type: physicochemical; settings: oven under vacuum, ramped to 157° C.; purple taffy-like product
# Experimental: 372 grams of crude industrial hemp extract containing approximately 65% cannabidiol was dissolved in ethanol at a weight ratio of 1:2 crude to ethanol. 43.2 grams of potassium hydroxide was slowly added to the hemp extract in ethanol, and the solution was stirred while heating at 55° C. The solution was then placed in an oven under vacuum and slowly ramped to a temperature of 157° C. over the course of approximately 1 hour, at which time heating was discontinued. The solution was then left in the oven under vacuum overnight.
# The product produced by ethanol removal in an oven under vacuum was purple with a taffy-like consistency indicative of polymer formation. The product lacked appreciable solubility in water.
# [7] = Commercial viability of beverages: phenolate solution added to bottled water (Example 21); assay type: physicochemical
# Experimental: 20 milliliters of water was removed from a 1 liter bottle of ESSENTIA® OVERACHIEVING H2O®. ESSENTIA® OVERACHIEVING H2O® contains purified water, sodium bicarbonate, dipotassium phosphate, magnesium sulfate, and calcium chloride, and its pH was determined to be about 9.5. The 20 milliliters of removed water was replaced with 20 milliliters of the 20 gram-per-liter solution of 2-[(1R,6R)-6-isopropenyl-3-methylcyclohex-2-en-1-yl]-3-hydroxy-5-pentylphenolate, which is described in Example 19, and the bottle was sealed using the screw-cap top of the bottle to produce a sealed container containing approximately 400 milligrams of 2-[(1R,6R)-6-isopropenyl-3-methylcyclohex-2-en-1-yl]-3-hydroxy-5-pentylphenolate. The pH of the liquid was measured and determined to be about 10.
# 5 milliliters of water was removed from a 500 milliliter bottle of DASANI® purified water. DANSANI® purified water contains purified water, magnesium sulfate, potassium chloride, and sodium chloride, and its pH was determined to be about 7.0. The 5 milliliters of removed water was replaced with 5 milliliters of the 20 gram-per-liter solution of 2-[(1R,6R)-6-isopropenyl-3-methylcyclohex-2-en-1-yl]-3-hydroxy-5-pentylphenolate, which is described in Example 19, and the bottle was sealed using the screw-cap top of the bottle to produce a sealed container containing approximately 100 milligrams of 2-[(1R,6R)-6-isopropenyl-3-methylcyclohex-2-en-1-yl]-3-hydroxy-5-pentylphenolate. The pH of the liquid was measured and determined to be about 9.5.
# 0.5 milliliters of water was removed from a 500 milliliter bottle of DASANI® purified water. […] The pH of the liquid was measured and determined to be about 8.5.
# [8] = system: healthy, consenting adults; assay: Qualitative assessment of pharmacokinetics in humans, oral self-administration (Example 23); assay type: in vivo, human
# Experimental: Approximately 60 milligrams of 2-[(1R,6R)-6-isopropenyl-3-methylcyclohex-2-en-1-yl]-3-hydroxy-5-pentylphenolate prepared from crude industrial hemp extract was dissolved in water as described in Example 16, buffered to a pH of 9.1, and added to a 296 milliliter bottle of DASANI® purified water. […] A healthy, consenting adult self-administered the entire bottle of 60 milligrams of 2-[(1R,6R)-6-isopropenyl-3-methylcyclohex-2-en-1-yl]-3-hydroxy-5-pentylphenolate in water orally over 5 to 10 minutes. […] The individual described the psychoactive effect as a pleasant sensation accompanied by both an enhanced ability to focus and elevated alertness.
# Approximately 30 milligrams of 2-[(1R,6R)-6-isopropenyl-3-methylcyclohex-2-en-1-yl]-3-hydroxy-5-pentylphenolate prepared from crude industrial hemp extract was dissolved in water, buffered to a pH of 9.1, and added to each of four 296 milliliter bottles of DASANI® purified water. […] Four healthy, consenting adults orally self-administered varying amounts of the four solutions over 5 to 10 minutes.
# [9] = approximately 60 milligrams in 296 mL water, pH 9.1, oral over 5 to 10 minutes, one adult
structure (smiles),measurement,setting,value
"C=C(C)[C@@H]1CCC(C)=C[C@H]1c1c([O-])cc(CCCCC)cc1O.[K+] [potassium salt of 2-[(1R,6R)-6-isopropenyl-3-methylcyclohex-2-en-1-yl]-3-hydroxy-5-pentylphenolate]",dissolution in 100 millimolar aqueous sodium carbonate,[1],the majority of the salt remained in the solid phase
"C=C(C)[C@@H]1CCC(C)=C[C@H]1c1c(O)cc(CCCCC)cc1O [cannabidiol, 2-[(1R,6R)-6-isopropenyl-3-methylcyclohex-2-en-1-yl]-5-pentylbenzene-1,3-diol]",pKa,"[2]; Example 19, dilute aqueous solutions, read-out: pKa of cannabidiol",< 9.1
same,other cannabinoids in the olive oil samples,[3]; HPLC with diode array detector,did not detect any other cannabinoid
same,cannabidiol content of olive oil samples,"[3]; reprotonated with acetic acid, 100 mL water extracted with 4 mL olive oil, two samples, HPLC",0.18 % by weight and 0.21 % by weight
same,pKa,"[4]; Example 7, from carbon-filtered industrial hemp extract, read-out: pKa of cannabidiol in water",> 9.1
same,pKa of cannabidiol in water,"[4]; Example 8, from cannabidiol isolate",greater than 9.1
same,pKa,[5],8 to 8.5
"C=C(C)[C@@H]1CCC(C)=C[C@H]1c1c(O)cc(CCCCC)cc1O [2-[(1R,6R)-6-isopropenyl-3-methylcyclohex-2-en-1-yl]-3-hydroxy-5-pentylphenolate]",color change from purple to colorless,"[2]; pH's of 9.1 and above, 0.1 M carbonate/bicarbonate buffer",No color change
same,stability at high temperatures,[6],unstable at high temperatures
same,concentration dissolved in water,[3]; worked out from the olive oil samples,about 78 milligrams per liter
same,appearance of the liquid,"[7]; approximately 10 milligrams in 500 milliliter DASANI water, pH about 8.5",transparent and lacked discernable color
same,appearance of the liquid,"[7]; approximately 100 milligrams in 500 milliliter DASANI water, pH about 9.5",transparent and purple
same,appearance of the liquid,"[7]; approximately 400 milligrams in 1 liter ESSENTIA water, pH about 10",purple and transparent
same,onset of a perceptible psychoactive effect,[8]; [9],within minutes of ingestion
same,time of marked perceptible psychoactive effect following ingestion,[8]; [9],approximately 30 minutes
same,individuals reporting rapid onset of a perceptible psychoactive effect within minutes of ingestion,"[8]; approximately 100 milligrams per liter, pH 9.1, varying amounts, oral over 5 to 10 minutes, four adults",Three of the four individuals
same,time to psychoactive effects after ingestion,"[8]; dissolved in water, orally administered",less than 5 minutes
